Format in all cases: physicochemical
The nature of data set [1]: Effect of the additives on the stability of the aqueous solution comprising Compound D, stored at 40° C. in LDPE container. Particulars: Compound D 0.3%. On the procedure: Compound D was added with glycerin and distilled water and stirred to give clear aqueous solution (Conc. of Compound D: 0.3%, conc. of glycerin: 2.5%, about pH 6). Thus obtained solution was stored at 40° C. in the LDPE container and concentration of Compound D in the solution was observed over time.

Data set [2] in a line: Effect of sodium chloride on the solubility of Compound A, B and C (aqueous saturated solutions). The conditions noted are these: for solubility: thermodynamic from solid; for Precipitation: aqueous saturated solution. On the procedure:
Sodium chloride was added to thus obtained aqueous saturated solution of Compound A, B, and C respectively in an amount to give 0.4% NaCl solution and the mixture was stirred.
Similarly, the saturated aqueous solution of Compound A-C was added with sodium chloride in an amount to give 0.85% solution, and precipitation and solubility were observed.

Data set [3] in a line: Effect of the additives on solubility of Compound C (aqueous saturated solution). On the procedure: To the saturated solution of Compound C prepared in the same manner as test example 1, glycerin in an amount to give 2.5% solution was added and the mixture was stirred. Similarly, mannitol in an amount to give 3.5% solution, boric acid in an amount to give 2% solution, potassium chloride in an amount to give 0.2% solution, disodium hydrogenphosphate in an amount to give 1% and sodium citrate in an amount to give 1% solution were added to the aqueous saturated solution of Compound C respectively. Precipitation and solubility, i.e. the change of the concentration of Compound C in the solution or supernatant were observed.

Data set [4] is described as follows: Effect of the additives on the stability of the aqueous solution comprising Compound C, stored at 40° C. in LDPE container.
Where [5] appears, read: Boric acid 1.68% and borax 0.018%, 40° C., 1 month.
Where [6] appears, read: Boric acid 1.68% and borax 0.018%, 40° C., 3 months.
Setting [7] is: Boric acid 1.68% and borax 0.018%, 40° C., 6 months.
Setting [8] is: aqueous saturated solution with 0.4% NaCl, saline or isotonic, conc. in solution or supernatant, NaCl 0.4%.
The mark [9] stands for this setting: aqueous saturated solution with 0.85% NaCl, saline or isotonic, conc. in solution or supernatant, NaCl 0.85%.
Setting [10] is: distilled water (injection grade), aqueous saturated solution in distilled water, NaCl 0%, A about pH 7, B about pH 3 (HCl), C about pH 7 (HCl).

Structures are written as SMILES. ≈ marks a conversion by molar mass, not a printed value.

As to `CC(=O)Nc1nc(CCc2ccc(NC(=N)N)cc2)c(Cc2ccc(S(C)(=O)=O)cc2)s1.Cl` [Compound D], the “Change in Concentration of Compound D (vs the initial conc.)” value is 99.7% in data set [1] (setting [5]); 105.8% in data set [1] (setting [6]); 102.6% in data set [1] (setting [7]); “=100%” in data set [1] (Boric acid 1.68% and borax 0.018%, 40° C., initial); 100.8% in data set [1] (Glycerin 2.5%, about pH 6, 40° C., 1 month); 107.7% in data set [1] (Glycerin 2.5%, about pH 6, 40° C., 3 months). Also, the “Change in Concentration of Compound D (vs the initial conc.)” value in data set [1] (Glycerin 2.5%, about pH 6, 40° C., 6 months) is 104.4%; in data set [1] (Glycerin 2.5%, about pH 6, 40° C., initial), “=100%”.
As to `CC(=O)Nc1nc(CCc2ccc(NC(=N)N)cc2)cs1` [Compound A], the “% Solubulity” value was “=100%” in data set [2] (NaCl 0% (reference)); 31% in data set [2] (NaCl 0.4%, vs 0% NaCl); 20% in data set [2] (NaCl 0.85%, vs 0% NaCl). Also, the results for the solubility in data set [2] (setting [8]), in data set [2] (setting [9]) and in data set [2] (setting [10]) were 1110 µg/mL (≈ 3.66 mM), 690 µg/mL (≈ 2.27 mM) and 3550 µg/mL (≈ 11.7 mM), respectively. For the same molecule, the Precipitation result in data set [2] (conc. of NaCl 0%) is “no”; in data set [2] (conc. of NaCl 0.4%), “yes”; in data set [2] (conc. of NaCl 0.85%) it was “yes”.
`CC(=O)Nc1nc(CCc2ccc(NC(=N)N)cc2)c(Cc2ccc(S(C)(=O)=O)cc2)s1` [Compound C]: the “% Solubulity” value in data set [2] (NaCl 0% (reference)) was “=100%”; in data set [2] (NaCl 0.4%, vs 0% NaCl) it was 16%; in data set [2] (NaCl 0.85%, vs 0% NaCl) it was 8%. The solubility in data set [2] (setting [8]) was found to be 1760 µg/mL (≈ 3.73 mM); in data set [2] (setting [9]) it was 860 µg/mL (≈ 1.82 mM); in data set [2] (setting [10]), 10700 µg/mL (≈ 22.8 mM). Besides, the Precipitation entry in data set [2] (conc. of NaCl 0%) is on record as “no”; in data set [2] (conc. of NaCl 0.4%), “yes”; in data set [2] (conc. of NaCl 0.85%), “yes”; in data set [3] (Boric acid 2%), “no”; in data set [3] (Glycerin 2.5%) it was “no”; in data set [3] (Mannitol 3.5%) it was “no”. Besides, the Precipitation entry in data set [3] (Potassium Chloride 0.2%), in data set [3] (disodium hydrogenphosphate 1%) and in data set [3] (sodium citrate 1%) was “yes” throughout. In addition, the B/A ratio in data set [3] (Boric acid 2%) worked out at 100%; in data set [3] (Glycerin 2.5%), 95%; in data set [3] (Mannitol 3.5%) it was 96%; in data set [3] (Potassium Chloride 0.2%), 29%; in data set [3] (disodium hydrogenphosphate 1%) it was 24%; in data set [3] (sodium citrate 1%) it was 4%. The “Conc. of C/w additive (B)” value in data set [3] (Boric acid 2%) was determined as 11.59 mg/mL; in data set [3] (Glycerin 2.5%), 10.91 mg/mL; in data set [3] (Mannitol 3.5%), 11.05 mg/mL; in data set [3] (Potassium Chloride 0.2%), 3.16 mg/mL; in data set [3] (disodium hydrogenphosphate 1%), 2.54 mg/mL; in data set [3] (sodium citrate 1%), 0.48 mg/mL. Further, the solubility thermodynamic in data set [3] (aqueous saturated solution, pH 7, water, thermodynamic from solid, saturated solution before adding Mannitol 3.5%, read-out: Conc. of C w/o additive (A)) was determined as 11.5 mg/mL (≈ 24.4 mM). Further, the “Conc. of C w/o additive (A)” value in data set [3] (saturated solution before adding Boric acid 2%) is given as 11.51 mg/mL; in data set [3] (saturated solution before adding Glycerin 2.5%), 11.51 mg/mL; in data set [3] (saturated solution before adding Potassium Chloride 0.2%), 10.73 mg/mL; in data set [3] (saturated solution before adding disodium hydrogenphosphate 1%), 10.73 mg/mL; in data set [3] (saturated solution before adding sodium citrate 1%), 10.73 mg/mL. Also, the “Change in Concentration of Compound C (vs the initial conc.)” value is recorded as 104.9% in data set [4] (setting [5]); 106.2% in data set [4] (setting [6]); 108.2% in data set [4] (setting [7]); “=100%” in data set [4] (Boric acid 1.68% and borax 0.018%, 40° C., Initial); 105.4% in data set [4] (Glycerin 2.5%, Compound C 0.3%, about pH 6, 40° C., 1 month); 110.6% in data set [4] (Glycerin 2.5%, Compound C 0.3%, about pH 6, 40° C., 3 months). Further, the “Change in Concentration of Compound C (vs the initial conc.)” value in data set [4] (Glycerin 2.5%, Compound C 0.3%, about pH 6, 40° C., 6 months) was 112.3%; in data set [4] (Glycerin 2.5%, Compound C 0.3%, about pH 6, 40° C., Initial), “=100%”; in data set [4] (Mannitol 4.7%, 40° C., 1 month), 103.7%; in data set [4] (Mannitol 4.7%, 40° C., 3 months), 108.4%; in data set [4] (Mannitol 4.7%, 40° C., 6 months), 109.6%; in data set [4] (Mannitol 4.7%, 40° C., Initial), “=100%”.
Take `CC(=O)Nc1nc(CCc2ccc(CON)cc2)cs1` [Compound B]: the “% Solubulity” value in data set [2] (NaCl 0% (reference)) is listed as “=100%”; in data set [2] (NaCl 0.4%, vs 0% NaCl) it was 100%; in data set [2] (NaCl 0.85%, vs 0% NaCl), 100%. Also, the results for the solubility in data set [2] (setting [8]), in data set [2] (setting [9]) and in data set [2] (setting [10]) were 1170 µg/mL (≈ 4.02 mM), 1190 µg/mL (≈ 4.08 mM) and 1120 µg/mL (≈ 3.84 mM), respectively. Also, the Precipitation result in data set [2] (conc. of NaCl 0%), in data set [2] (conc. of NaCl 0.4%) and in data set [2] (conc. of NaCl 0.85%) was “no” in each case.

Values taken from patent US20070208068A1, “Aqueous Composition Comprising Thiazole Derivative” (R-TECH UENO, LTD. & Astellas Pharma Inc., priority 2004, published 2007).
